Conditions: Liquid, Vibrating tube method

CCC(C)O (configuration not stated) [butan-2-ol]
mass density [kg/m3]
Conditions	293.15 K	298.15 K	313.15 K	333.15 K	353.19 K	373.24 K	393.28 K
100 kPa	806.7	802.6	789.6	770.8	750.3	–	–
1000 kPa	807.4	803.3	790.3	771.8	751.4	729.1	704.8
5000 kPa	810.4	806.4	793.7	775.7	756	734.5	711.3
10000 kPa	814	810.1	797.8	780.3	761.3	740.8	718.8
15000 kPa	817.4	813.7	801.6	784.7	766.4	746.6	725.6
20000 kPa	820.7	817	805.3	788.9	771	751.9	731.7
25000 kPa	823.9	820.2	808.6	792.7	775.4	757	737.4
30000 kPa	826.9	823.4	812.1	796.4	779.5	761.6	742.7
35000 kPa	829.8	826.4	815.3	800	783.5	766.1	747.8
40000 kPa	832.7	829.2	818.4	803.5	787.2	770.3	752.5
45000 kPa	835.4	832	821.3	806.6	790.8	774.4	757
50000 kPa	838.1	834.7	824.3	809.8	794.4	778.1	761.2
55000 kPa	840.6	837.4	827.1	812.8	797.7	781.8	765.4
60000 kPa	843.2	839.9	829.8	815.8	801	785.3	769.2
65000 kPa	845.6	842.4	832.5	818.7	804.1	788.8	772.9
70000 kPa	848	844.8	835	821.4	807.2	792.1	776.6
80000 kPa	852.6	849.5	839.9	826.8	812.9	798.4	783.4
90000 kPa	857.1	854.1	844.7	831.9	818.3	804.3	789.8
100000 kPa	861.2	858.3	849.1	836.7	823.5	809.8	795.8
110000 kPa	865.3	862.4	853.5	841.3	828.5	815.1	801.5
120000 kPa	869.2	866.3	857.6	845.6	833.1	820.1	806.8
130000 kPa	873	870.1	861.5	849.9	837.6	824.9	811.9
140000 kPa	876.6	873.9	865.4	853.9	842	829.5	816.8

CC(C)OC(C)C [diisopropyl ether]
mass density [kg/m3]
Conditions	293.15 K	298.15 K	313.15 K	333.15 K	353.19 K	373.24 K	393.28 K
100 kPa	723.5	718.3	702.4	680.5	–	–	–
1000 kPa	724.6	719.6	703.8	682.1	659.5	635.6	609.5
5000 kPa	729.4	724.5	709.4	688.9	667.6	645.5	622.1
10000 kPa	734.9	730.2	715.8	696.4	676.5	656.1	635
15000 kPa	740	735.6	721.7	703.2	684.4	665.3	645.8
20000 kPa	744.8	740.5	727.2	709.4	691.5	673.5	655.2
25000 kPa	749.4	745.2	732.1	715.1	698	680.8	663.5
30000 kPa	753.7	749.6	737.1	720.5	704	687.6	671.1
35000 kPa	757.7	753.7	741.6	725.6	709.7	693.8	677.9
40000 kPa	761.6	757.8	745.9	730.3	714.8	699.6	684.3
45000 kPa	765.3	761.6	750	734.8	719.7	705	690.2
50000 kPa	768.9	765.2	753.9	739.1	724.6	710.1	695.8
55000 kPa	772.4	768.8	757.7	743.1	728.9	714.9	701.1
60000 kPa	775.7	772.2	761.3	747.1	733.2	719.5	705.9
65000 kPa	778.9	775.4	764.8	750.9	737.2	723.9	710.6
70000 kPa	782	778.6	768.1	754.4	741.1	728.1	715.2
80000 kPa	787.9	784.6	774.4	761.3	748.4	735.9	723.5
90000 kPa	793.5	790.3	780.5	767.7	755.4	743.2	731.3
100000 kPa	798.8	795.7	786.1	773.7	761.6	750	738.4
110000 kPa	803.9	800.8	791.4	779.4	767.8	756.3	745.3
120000 kPa	808.7	805.6	796.5	784.7	773.4	762.3	751.4
130000 kPa	813.2	810.3	801.4	789.9	778.8	768	757.4
140000 kPa	817.6	814.6	806	794.8	784	773.3	763.1
